According to PubChem BioAssay (NCI):
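48-hour exposure; five concentrations; linearly interpolated endpoints. The concentration for 50% growth inhibition is given as GI50. Definition used: TGI = concentration required for complete inhibition of growth.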

Columns and labels:
Test in all cases: NCI-60 cell line screen, 48 h
[1] = tested on: ACHN renal
[2] = tested on: CAKI-1 renal
[3] = tested on: COLO 205 colon
[4] = tested on: HCT-15 colon
[5] = tested on: NCI-H522 lung
[6] = tested on: OVCAR-3 ovarian
[7] = tested on: OVCAR-4 ovarian
[8] = tested on: SF-539 CNS
[9] = tested on: SN12C renal
[10] = tested on: TK-10 renal

Row | SMILES | GI50 [1] [µM] | TGI [1] [µM] | GI50 [2] [µM] | TGI [2] [µM] | GI50 [3] [µM] | TGI [3] [µM] | GI50 [4] [µM] | TGI [4] [µM] | GI50 [5] [µM] | TGI [5] [µM] | GI50 [6] [µM] | TGI [6] [µM] | GI50 [7] [µM] | TGI [7] [µM] | GI50 [8] [µM] | TGI [8] [µM] | GI50 [9] [µM] | TGI [9] [µM] | GI50 [10] [µM] | TGI [10] [µM]
1 | CNC(=O)NCC1OC(n2cnc3c(NC(=O)Nc4ccccc4)ncnc32)C(O[Si](C)(C)C(C)(C)C)C1O[Si](C)(C)C(C)(C)C (centres undefined) | 3.83 | > 100 | 2.7 | 7.93 | 1.89 | 3.36 | 3.62 | > 100 | 2.39 | 7.14 | 2.6 | 5.54 | 3.44 | 43.9 | 3.07 | 13 | 1.81 | 3.38 | 4.29 | 72.6
2 | CCCCCCCCCCCC1=NC(C)(C)CN1C(C)(C)CO | 3.01 | 10 | 1.73 | 4.37 | 1.59 | 3 | 2.15 | 4.74 | 1.84 | 4.02 | 2.05 | 6.2 | 4.61 | 15.8 | 1.85 | 3.51 | 4.31 | 17.5 | 1.94 | 3.61
3 | Cc1ccc2nc3ccccc3c(NCc3ccc(Cl)cc3)c2c1 | 5.44 | 11.9 | 4.89 | 11 | 1.27 | 3.39 | 2.52 | 8.73 | 5.85 | 14.6 | 6.31 | 13 | 5.13 | 11.9 | 5.55 | 12.1 | 5.09 | 12 | 8.94 | 16.7
4 | O=C(CCN1CCCC1)Nc1ccc2c(NCc3ccccc3)c3ccccc3nc2c1 | 0.465 | 2.22 | 1.53 | 6.18 | 0.319 | 1.36 | 1.86 | 6.97 | 0.298 | 1.34 | 0.495 | 1.97 | 0.381 | 1.63 | 0.422 | 1.58 | 0.332 | 1.52 | 0.802 | 3.5
5 | NC(=N\N=C/c1ccc(O)cc1)/C(N)=N\N=C/c1ccc(O)cc1 | 3.85 | > 100 | 2.06 | > 100 | > 93.5 | > 100 | – | > 100 | 0.52 | > 100 | > 100 | > 100 | > 90.1 | > 100 | 3.99 | > 100 | > 31 | > 100 | > 100 | > 100
6 | C[C@H]1[C@H](C)N1CC(O)Cn1ccnc1[N+](=O)[O-] (some centres undefined) | – | > 100 | – | > 100 | – | > 100 | – | > 100 | – | > 100 | – | > 100 | – | > 100 | – | > 100 | – | > 100 | – | > 100
7 | CC(C)/C=C1\CCC(CN2CCOCC2)C1=O (centres undefined) | – | 32.3 | – | 8.93 | – | 22.3 | – | 19.2 | – | 3.8 | – | 32.7 | – | 40 | – | 29.3 | – | 36.5 | – | 29.7
8 | N#C/C(=C1\SCC(=O)N1c1ccccc1)c1nc2ccccc2[nH]1 | – | > 100 | – | > 100 | – | > 100 | – | > 100 | – | > 100 | – | > 100 | – | > 100 | – | > 100 | – | > 100 | – | > 100
9 | [2H]C([2H])([2H])NC(=O)c1nnc(NC(=O)C2CC2)cc1Nc1cccc(-c2ncn(C)n2)c1OC | 5.53 | > 100 | 4.52 | 71.6 | 97.1 | > 100 | 15.5 | > 100 | 23 | > 100 | 41.3 | > 100 | 18.2 | > 100 | 61.1 | > 100 | 34.5 | > 100 | 8.28 | > 100
10 | COc1cc2c(cc1OC)-c1ncc3c(OC)ccc(OC)c3c1C2 | 24 | > 100 | 14.4 | > 100 | 42.7 | > 100 | 9.93 | > 100 | 2.94 | 31.8 | 15.4 | 46.8 | 71.9 | > 100 | 14 | 33.4 | 14.8 | 58 | 16.8 | 43.6
11 | COc1ccccc1N=Nc1c(-c2ccccc2)nn(C(=O)CC(=O)Nc2cccc(C)c2)c1-c1ccccc1 | – | > 100 | – | > 100 | – | > 100 | – | > 100 | – | > 100 | – | 53.9 | – | > 100 | – | > 100 | – | > 100 | – | > 100
12 | C/C(=C\c1ccn(-c2ccccc2N)n1)[C@@H]1C[C@@H]2O[C@]2(C)CCC[C@H](C)[C@H](O)[C@@H](C)C(=O)C(C)(C)[C@@H](O)CC(=O)O1 | 0.283 | > 50 | 0.242 | > 50 | 0.0212 | 0.641 | 0.0393 | > 50 | 0.0511 | 0.386 | 0.0177 | 0.457 | 0.392 | > 50 | 0.0334 | 0.236 | 0.145 | > 50 | 0.143 | > 50
